Measurements as given in US20090241222A1, “TANDEM REAPEAT DNA CONSTRUCTS PRODUCING PROTEINS THAT ATTACK PLANT PATHOGENIC VIRUSES, FUNGI, AND BACTERIA BY DISRUPTING TRANSCRIPTION FACTORS ESSENTIAL FOR REPLICATION THEREOF IN PLANTS” (priority 2008, published 2009).
“Also recorded” adds a separate entry of the source. Where two headings read alike, the source gives them in different places.

Legend:
[1] = system: mammalian retroviruses; details: millimolar concentrations; cited from earlier work
[2] = system: Mammalian rotaviruses; details: millimolar concentrations; cited from earlier work
[3] = system: Arabidopsis thaliana; details: cited from earlier work
[4] = system: SV40 transformed BALB-3T3 cells; details: cited from earlier work
[5] = system: tomato spotted wilt virus; details: tomato and tobacco plants; cited from earlier work
[6] = system: Common ornamental plant cells infected by viruses; test: Treatment of virus-infected ornamental plants; details: viral strains not determined
[7] = system: Arabidopsis thaliana; details: in vivo; cited from earlier work
[8] = biological target: T1, recombinant MPS-1 (CCCC zinc finger) (Homo sapiens, UniProt P42677); test: Gel shift assay and radioactive Zn65 removal from recombinant MPS-1; type: biochemical
T1 construct: made in house
Description: MPS-1 is a ubiquitous tumor marker and cell growth stimulator and is described in detail in the inventors' U.S. Pat. No. 5,243,041. MPS-1 has one zinc finger domain of the type CCCC. […] This is detected by a change in the electrophoretic mobility of MPS-1 under non-denaturing conditions. These experiments indicate that picolinic acid and derivatives should remove zinc and denature various types of zinc finger, zinc ring proteins, or other types of ZF motifs whether known or heretofore undiscovered, including animal or plant viral proteins such as nucleocapsid proteins of retrovirus or the nucleocapsid proteins of Geminivirus. Furthermore, the inventors have determined that any chemical compound, whether known or heretofore undiscovered, that will remove the zinc (or other metal) and denature the proteins or that will form a ternary complex (protein-zinc-chelator) can be effective as an antiviral agent, with nontoxic effects, provided that the agent conforms with certain specific structural requirements.

[9] = system: Orobanche ramosa; details: Arabidopsis thaliana pre-treated with FU; cited from earlier work
[10] = system: HSV-1; details: tissue culture and animals; cited from earlier work
[11] = system: HSV-2; details: tissue culture and animals; cited from earlier work
[12] = system: HIV-1, Hepatitis C and numerous other viruses as well as the host cells; test: Fate of virus-infected host cells after treatment; type: cell-based
Description: APOPTOSIS. Apoptosis is a morphological pattern of cell injury and an important mode of cell death (Robbins, Pathological Basis of Disease, 1999, 6th Ed). Apoptosis shares and overlaps common mechanisms with necrosis. […] This form of cell death is designed to eliminate defective, unwanted and damaged cells. For example, the inventors have shown that cells infected by Herpes Simplex Virus 1 (HSV; labialis) and HSV-2 genitalis are destroyed together with the host cells that they infected by apoptosis when exposed to pyridine carboxylates (Fernandez-Pol, Anticancer Res. 2002). […] Thus, the inventors believes that when host cells of animals or plants are infected by pathogenic viruses, unless the treatment is extremely quickly, the host cells and the virus will be destroyed. In fact, host cells defective, mutated, and reservoirs for the novo synthesis of viruses are unwanted host cells and must be eliminated in many instances to allow the survival of the organism.

[13] = system: marker defense genes PR-1, PR-2 and PDF1.2; details: dose-dependent and time dependent; cited from earlier work
[14] = system: cells (iron incorporation); details: cited from earlier work
[15] = system: virally-transformed cells; details: cited from earlier work
[16] = system: normal cells (NRK, BALB 3T3); details: cited from earlier work
[17] = system: rice; details: in vivo; cited from earlier work
[18] = system: NRK cells; details: cells treated with picolinic acid; cited from earlier work

O=C(O)CN(CCN(CC(=O)O)CC(=O)O)CC(=O)O [EDTA]
disintegration of viral membranes (release of reverse transcriptase) [1]: partial disintegration of viral membranes
disintegration of viral membranes and release of Zinc Finger Proteins [2]: partial disintegration of the viral membranes

O=C(O)CN(CCOCCOCCN(CC(=O)O)CC(=O)O)CC(=O)O [EGTA]
disintegration of viral membranes (release of reverse transcriptase) [1]: partial disintegration of viral membranes
disintegration of viral membranes and release of Zinc Finger Proteins [2]: partial disintegration of the viral membranes

COS(C)(=O)=O [MMS, Methyl Methane Sulphonate]
growth and size of the plant ([3]; ars27A mutant, 3 weeks): strongly inhibited
growth and size of the plant ([3]; wild type, same concentrations): not affecting

NC(=O)c1cccnc1 [Nicotinamide, reference compound]
effect on cell growth or apoptosis ([4]; at 48 h): no effect

NC(=O)c1ncn([C@@H]2O[C@H](CO)[C@@H](O)[C@H]2O)n1 [Virazole (Ribavirin)]
use against tomato spotted wilt virus [5]: successfully used

CCCCc1ccc(C(=O)O)nc1 [fusaric acid, 5-butyl picolinic acid]
outcome of treatment of virus-infected ornamental plants [6]: positive results
concentration eliciting plant defense responses without toxic effects [7]: 100 nM
concentrations that reduced root growth and induced membrane hyperpolarization/depolarization [7]: > 500 µM
removal of zinc (radioactive Zn65) from CCCC zinc finger of MPS-1 [8]: remove radioactive Zn65 from MPS-1; also recorded: remove zinc
zinc dependent binding of recombinant MPS-1 to DNA (gel shift assays) [8]: inhibit the zinc dependent binding of recombinant MPS-1 to DNA
germination of the angiosperm parasite [9]: inhibited
efficacy against viral infection by HSV-1 [10]: effective
efficacy against viral infection by HSV-2 [11]: effective
fate of viruses and host cells after treatment [12]: Death by apoptosis

O=C(O)c1ccccn1 [picolinic acid, 2-pyridine carboxylic acid]
outcome of treatment of virus-infected ornamental plants [6]: positive results
induction of marker defense genes PR-1, PR-2 and PDF1.2 [13]: all induced
mitochondrial cytochrome c release ([4]; 3 mM picolinic acid): released cytochrome c
removal of zinc (radioactive Zn65) from CCCC zinc finger of MPS-1 [8]: remove radioactive Zn65 from MPS-1; also recorded: remove zinc
zinc dependent binding of recombinant MPS-1 to DNA (gel shift assays) [8]: inhibit the zinc dependent binding of recombinant MPS-1 to DNA
incorporation of iron into the cells [14]: inhibits incorporation of iron into the cells
removal of radioiron from the cells [14]: effectively removes radioiron from the cells
cell cycle arrest, Flow Microfluorometric Analysis of DNA ([15]; Kirsten sarcoma virus transformed cells): G1 phase
cytotoxicity in transformed cells ([15]; longer exposure/further incubation): cytotoxicity and cell death was observed in all transformed cells; also recorded: cell death by apoptosis was observed in all transformed cells
toxicity to normal cells [16]: no toxic effects
hypersensitive response (HR) [17]: elicit the hypersensitive response (HR)
fate of viruses and host cells after treatment [12]: Death by apoptosis
potency of prostaglandin E1 in elevating cyclic AMP [18]: two to five times more potent
